Experimental data: PubChem BioAssay (NCI)
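Compound exposure: 48 hours, 5 concentrations, 96-well plates. TGI: total growth inhibition.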

What was measured:
Assay in all cases: inhibition of tumour cell growth, NCI panel, 48 h
786-0 renal = tested on: 786-0 renal
A549 NSCLC = tested on: A549 NSCLC
ACHN renal = tested on: ACHN renal
BT-549 breast = tested on: BT-549 breast
CAKI-1 renal = tested on: CAKI-1 renal
CCRF-CEM leukemia = tested on: CCRF-CEM leukemia
COLO 205 colon = tested on: COLO 205 colon
DU-145 prostate = tested on: DU-145 prostate
EKVX NSCLC = tested on: EKVX NSCLC
HCC-2998 colon = tested on: HCC-2998 colon
HCT-116 colon = tested on: HCT-116 colon
HCT-15 colon = tested on: HCT-15 colon
HL-60(TB) leukemia = tested on: HL-60(TB) leukemia
HOP-62 NSCLC = tested on: HOP-62 NSCLC
HOP-92 NSCLC = tested on: HOP-92 NSCLC
HS 578T breast = tested on: HS 578T breast
HT29 colon = tested on: HT29 colon
IGROV1 ovarian = tested on: IGROV1 ovarian
K-562 leukemia = tested on: K-562 leukemia
KM12 colon = tested on: KM12 colon
LOX IMVI melanoma = tested on: LOX IMVI melanoma
M14 melanoma = tested on: M14 melanoma
MCF7 breast = tested on: MCF7 breast
MDA-MB-231 breast = tested on: MDA-MB-231 breast
MDA-MB-435 = tested on: MDA-MB-435
MDA-N = tested on: MDA-N
MOLT-4 leukemia = tested on: MOLT-4 leukemia
NCI-H226 lung = tested on: NCI-H226 lung
NCI-H23 lung = tested on: NCI-H23 lung
NCI-H460 lung = tested on: NCI-H460 lung
NCI-H522 lung = tested on: NCI-H522 lung
NCI/ADR-RES ovarian = tested on: NCI/ADR-RES ovarian
OVCAR-3 ovarian = tested on: OVCAR-3 ovarian
OVCAR-8 ovarian = tested on: OVCAR-8 ovarian
PC-3 prostate = tested on: PC-3 prostate
RPMI-8226 leukemia = tested on: RPMI-8226 leukemia
RXF 393 renal = tested on: RXF 393 renal
SF-268 CNS = tested on: SF-268 CNS
SF-295 CNS = tested on: SF-295 CNS
SF-539 CNS = tested on: SF-539 CNS
SK-MEL-2 melanoma = tested on: SK-MEL-2 melanoma
SK-MEL-28 melanoma = tested on: SK-MEL-28 melanoma
SK-MEL-5 melanoma = tested on: SK-MEL-5 melanoma
SK-OV-3 ovarian = tested on: SK-OV-3 ovarian
SN12C renal = tested on: SN12C renal
SNB-19 CNS = tested on: SNB-19 CNS
SNB-75 CNS = tested on: SNB-75 CNS
SR leukemia = tested on: SR leukemia
SW-620 colon = tested on: SW-620 colon
T-47D breast = tested on: T-47D breast
TK-10 renal = tested on: TK-10 renal
U251 CNS = tested on: U251 CNS
UACC-257 melanoma = tested on: UACC-257 melanoma
UACC-62 melanoma = tested on: UACC-62 melanoma
UO-31 renal = tested on: UO-31 renal
MALME-3M melanoma = tested on: MALME-3M melanoma
OVCAR-4 ovarian = tested on: OVCAR-4 ovarian
OVCAR-5 ovarian = tested on: OVCAR-5 ovarian

CN=c1oc2ccccc2cc1C(N)=O
TGI (786-0 renal): > 100 µM | TGI (A549 NSCLC): > 100 µM | TGI (ACHN renal): > 100 µM | TGI (BT-549 breast): > 100 µM | TGI (CAKI-1 renal): > 100 µM | TGI (CCRF-CEM leukemia): > 100 µM | TGI (COLO 205 colon): > 100 µM | TGI (DU-145 prostate): > 100 µM | TGI (EKVX NSCLC): > 100 µM | TGI (HCC-2998 colon): > 100 µM | TGI (HCT-116 colon): > 100 µM | TGI (HCT-15 colon): > 100 µM | TGI (HL-60(TB) leukemia): > 100 µM | TGI (HOP-62 NSCLC): > 100 µM | TGI (HOP-92 NSCLC): > 100 µM | TGI (HS 578T breast): > 100 µM | TGI (HT29 colon): > 100 µM | TGI (IGROV1 ovarian): > 100 µM | TGI (K-562 leukemia): > 100 µM | TGI (KM12 colon): > 100 µM | TGI (LOX IMVI melanoma): > 100 µM | TGI (M14 melanoma): > 100 µM | TGI (MCF7 breast): > 100 µM | TGI (MDA-MB-231 breast): > 100 µM | TGI (MDA-MB-435): > 100 µM | TGI (MDA-N): > 100 µM | TGI (MOLT-4 leukemia): > 100 µM | TGI (NCI-H226 lung): > 100 µM | TGI (NCI-H23 lung): > 100 µM | TGI (NCI-H460 lung): > 100 µM | TGI (NCI-H522 lung): > 100 µM | TGI (NCI/ADR-RES ovarian): > 100 µM | TGI (OVCAR-3 ovarian): > 100 µM | TGI (OVCAR-8 ovarian): > 100 µM | TGI (PC-3 prostate): > 100 µM | TGI (RPMI-8226 leukemia): > 100 µM | TGI (RXF 393 renal): > 100 µM | TGI (SF-268 CNS): > 100 µM | TGI (SF-295 CNS): > 100 µM | TGI (SF-539 CNS): > 100 µM | TGI (SK-MEL-2 melanoma): > 100 µM | TGI (SK-MEL-28 melanoma): > 100 µM | TGI (SK-MEL-5 melanoma): > 100 µM | TGI (SK-OV-3 ovarian): > 100 µM | TGI (SN12C renal): > 100 µM | TGI (SNB-19 CNS): > 100 µM | TGI (SNB-75 CNS): > 100 µM | TGI (SR leukemia): > 100 µM | TGI (SW-620 colon): > 100 µM | TGI (T-47D breast): > 100 µM | TGI (TK-10 renal): > 100 µM | TGI (U251 CNS): > 100 µM | TGI (UACC-257 melanoma): > 100 µM | TGI (UACC-62 melanoma): > 100 µM | TGI (UO-31 renal): > 100 µM

Clc1ccc(C(c2ccc(Cl)cc2)c2cncnc2)cc1
TGI (786-0 renal): 33 µM | TGI (A549 NSCLC): 38.5 µM | TGI (ACHN renal): 36.4 µM | TGI (BT-549 breast): 27.4 µM | TGI (CAKI-1 renal): 39.7 µM | TGI (CCRF-CEM leukemia): 44.8 µM | TGI (COLO 205 colon): 33.2 µM | TGI (DU-145 prostate): 31.3 µM | TGI (HCT-116 colon): 26.9 µM | TGI (HCT-15 colon): 39.1 µM | TGI (HL-60(TB) leukemia): > 100 µM | TGI (HOP-62 NSCLC): 31.3 µM | TGI (HS 578T breast): 39.9 µM | TGI (HT29 colon): 28.3 µM | TGI (IGROV1 ovarian): 33.8 µM | TGI (K-562 leukemia): > 100 µM | TGI (KM12 colon): 37 µM | TGI (LOX IMVI melanoma): 31.2 µM | TGI (M14 melanoma): 30 µM | TGI (MALME-3M melanoma): 36.1 µM | TGI (MCF7 breast): 30 µM | TGI (MDA-MB-231 breast): 34 µM | TGI (MDA-MB-435): 28 µM | TGI (MDA-N): 29.3 µM | TGI (MOLT-4 leukemia): 67.6 µM | TGI (NCI-H23 lung): 36.9 µM | TGI (NCI-H460 lung): 31.4 µM | TGI (NCI-H522 lung): 33.3 µM | TGI (NCI/ADR-RES ovarian): 44.4 µM | TGI (OVCAR-3 ovarian): 27.9 µM | TGI (OVCAR-4 ovarian): 29 µM | TGI (OVCAR-5 ovarian): 29.5 µM | TGI (OVCAR-8 ovarian): 42.5 µM | TGI (PC-3 prostate): 27.3 µM | TGI (RPMI-8226 leukemia): > 100 µM | TGI (RXF 393 renal): 25.2 µM | TGI (SF-268 CNS): 33.8 µM | TGI (SF-295 CNS): 35.6 µM | TGI (SK-MEL-28 melanoma): 33.4 µM | TGI (SK-MEL-5 melanoma): 25.9 µM | TGI (SK-OV-3 ovarian): 33.4 µM | TGI (SN12C renal): 36.6 µM | TGI (SNB-19 CNS): 33 µM | TGI (SR leukemia): > 100 µM | TGI (T-47D breast): 32.3 µM | TGI (TK-10 renal): 30.8 µM | TGI (U251 CNS): 32.1 µM | TGI (UACC-257 melanoma): 49.1 µM | TGI (UACC-62 melanoma): 28.7 µM | TGI (UO-31 renal): 25.1 µM

Cc1cc(O)c(C=NC(=S)C(N)=S)c(=O)o1
TGI (786-0 renal): > 100 µM | TGI (A549 NSCLC): > 100 µM | TGI (ACHN renal): > 100 µM | TGI (BT-549 breast): > 100 µM | TGI (CAKI-1 renal): > 100 µM | TGI (CCRF-CEM leukemia): > 100 µM | TGI (COLO 205 colon): > 100 µM | TGI (DU-145 prostate): > 100 µM | TGI (EKVX NSCLC): > 100 µM | TGI (HCC-2998 colon): > 100 µM | TGI (HCT-116 colon): > 100 µM | TGI (HCT-15 colon): > 100 µM | TGI (HL-60(TB) leukemia): > 100 µM | TGI (HOP-62 NSCLC): > 100 µM | TGI (HOP-92 NSCLC): > 100 µM | TGI (HS 578T breast): > 100 µM | TGI (HT29 colon): > 100 µM | TGI (IGROV1 ovarian): > 100 µM | TGI (K-562 leukemia): > 100 µM | TGI (KM12 colon): > 100 µM | TGI (LOX IMVI melanoma): > 100 µM | TGI (M14 melanoma): > 100 µM | TGI (MCF7 breast): > 100 µM | TGI (MDA-MB-231 breast): > 100 µM | TGI (MDA-MB-435): > 100 µM | TGI (MDA-N): > 100 µM | TGI (MOLT-4 leukemia): > 30.1 µM | TGI (NCI-H226 lung): > 100 µM | TGI (NCI-H23 lung): > 100 µM | TGI (NCI-H460 lung): > 100 µM | TGI (NCI-H522 lung): > 100 µM | TGI (NCI/ADR-RES ovarian): > 100 µM | TGI (OVCAR-3 ovarian): > 100 µM | TGI (OVCAR-4 ovarian): > 100 µM | TGI (OVCAR-5 ovarian): > 100 µM | TGI (OVCAR-8 ovarian): > 100 µM | TGI (PC-3 prostate): > 100 µM | TGI (RPMI-8226 leukemia): > 100 µM | TGI (RXF 393 renal): > 100 µM | TGI (SF-268 CNS): > 100 µM | TGI (SF-295 CNS): > 100 µM | TGI (SF-539 CNS): > 100 µM | TGI (SK-MEL-2 melanoma): > 100 µM | TGI (SK-MEL-28 melanoma): > 100 µM | TGI (SK-MEL-5 melanoma): > 100 µM | TGI (SK-OV-3 ovarian): > 100 µM | TGI (SN12C renal): > 100 µM | TGI (SNB-19 CNS): > 100 µM | TGI (SNB-75 CNS): > 100 µM | TGI (SR leukemia): > 100 µM | TGI (SW-620 colon): > 100 µM | TGI (T-47D breast): > 100 µM | TGI (TK-10 renal): > 100 µM | TGI (U251 CNS): > 100 µM | TGI (UACC-257 melanoma): > 100 µM | TGI (UACC-62 melanoma): > 100 µM | TGI (UO-31 renal): > 100 µM
